Test results taken from paper PMC2736896 (2009).

Target: bilitranslocase (BTL) homologue
Experiment: inhibition of electrogenic BSP uptake into pulp microsomes, spectrophotometric
Assay type: biochemical, Vitis vinifera

Row | Ki | Compound
1 | 97.5 µM | O=c1c(O)c(-c2ccc(O)c(O)c2)oc2cc(O)cc(O)c12 [quercetin]
2 | 75.8 µM | O=C1C[C@@H](c2ccc(O)c(O)c2)Oc2cc(O)cc(O)c21 [eriodictyol]
